Measurements published in patent publication US20070066526A1, “Method for reducing risk of and extent of injury due to stroke in hypertensive subjects” (priority 2005, published 2007).

How the values were obtained:
[1] = tested on: δPKC; conditions: normotensive animals, sustained delivery; cited from earlier work
[2] = tested on: Dahl salt-sensitive rats; assay: Laser Doppler flowmetry of cerebral blood flow in hypertensive Dahl rats; conditions: 11 weeks old, intraperitoneal injection 0.2 mg/kg, 25 min post-treatment vs baseline, mean±SEM
Protocol: Six week old Dahl salt-sensitive rats were placed on an 8% high-salt diet to induce hypertension. Cerebral brain flow (CBF) was measured at 11 weeks, 4 weeks following high-salt diet onset. A burr hole was drilled 1 mm posterior and 6 mm lateral to bregma, corresponding to the ischemic territory. A laser Doppler transducer probe (Laserflo) was affixed above the cortex using a stereotaxic frame (Harvard Apparatus, MA), and a baseline CBF was established over a period of 20-30 minutes (1 minute intervals), Tat control peptide (n=5) or δV1-1-Tat peptide (n=15) was injected by intraperitoneal injection (0.2 mg/kg in 1 mL) and cerebral brain flow was monitored for an additional 20-30 minutes. Cerebral brain flow was also measured in the sham control animals (n=4).
Analysis of changes in cerebral brain flow was performed by comparing the baseline flow-rate at 20 minutes, to the flow-rate at 25 minutes post-treatment in all animals. Results were expressed as both a scattergram of percent flow changes in individual animals, and the mean±SEM flow in each group. Statistical analysis between Tat and δV1-1-Tat treatment groups was performed using an unpaired t-test.

[3] = tested on: hypertensive Dahl salt-sensitive rats; assay: Middle cerebral artery occlusion, infarct size by TTC staining in hypertensive Dahl rats; format: in vivo, rat
[4] = target: δPKC (Rattus norvegicus, UniProt P09215); assay: Western blot of δPKC translocation (soluble to membrane fraction) in brain of Dahl hypertensive rats; conditions: sustained subcutaneous pump delivery 4-6 weeks, n=3
Protocol: Dahl rats were implanted with pumps for subcutaneous delivering δV1-1-Tat or Tat control peptide for 4-6 weeks. δPKC activity in brain samples was assessed by determining the translocation of the enzyme from the soluble, cytosolic fraction, to the membrane-bound fraction, a standard marker for PKC activation (Kraft, A. S. et al., Nature, 301:621-3 (1983)).
The density of the bands was measured to assess PKC translocation, as a measure of δPKC activation.
Brains from Dahl hypertensive rats that received δV1-1-Tat or Tat peptide delivery for 4 weeks, starting at 11 weeks of age, were quickly isolated and frozen. Tissue fractionation was performed to collect soluble (cytosolic) and particulate (membrane) fractions, as previously described (Johnson, J. A. et al., Life Sci., 57:1027-38(1995)). 5 μg of protein from each fraction was used forwestern blot analysis using a rabbit anti-phospho-serine 643 δPKC antibody (Santa Cruz Biotechnology; 1:500) followed with an anti-rabbit secondary antibody (Amersham). Density of δPKC bands was measured to assess translocation of PKC from the cytosol to membrane fractions, a measure of activation (Kraft, A. S. et al., Nature, 301:621-3 (1983)). Blots were then reprobed with a rabbit anti-δPKC antibody (Santa Cruz Biotechnology; 1:500), to assess translocation of the δPKC isozyme. Statistical analysis was performed using students t-test.

[5] = target: T1, εPKC (Rattus norvegicus, UniProt P09216); assay: Western blot of εPKC translocation in brain of Dahl hypertensive rats; conditions: sustained subcutaneous pump delivery, same blot reprobed
T1 sequence (P09216 1-737): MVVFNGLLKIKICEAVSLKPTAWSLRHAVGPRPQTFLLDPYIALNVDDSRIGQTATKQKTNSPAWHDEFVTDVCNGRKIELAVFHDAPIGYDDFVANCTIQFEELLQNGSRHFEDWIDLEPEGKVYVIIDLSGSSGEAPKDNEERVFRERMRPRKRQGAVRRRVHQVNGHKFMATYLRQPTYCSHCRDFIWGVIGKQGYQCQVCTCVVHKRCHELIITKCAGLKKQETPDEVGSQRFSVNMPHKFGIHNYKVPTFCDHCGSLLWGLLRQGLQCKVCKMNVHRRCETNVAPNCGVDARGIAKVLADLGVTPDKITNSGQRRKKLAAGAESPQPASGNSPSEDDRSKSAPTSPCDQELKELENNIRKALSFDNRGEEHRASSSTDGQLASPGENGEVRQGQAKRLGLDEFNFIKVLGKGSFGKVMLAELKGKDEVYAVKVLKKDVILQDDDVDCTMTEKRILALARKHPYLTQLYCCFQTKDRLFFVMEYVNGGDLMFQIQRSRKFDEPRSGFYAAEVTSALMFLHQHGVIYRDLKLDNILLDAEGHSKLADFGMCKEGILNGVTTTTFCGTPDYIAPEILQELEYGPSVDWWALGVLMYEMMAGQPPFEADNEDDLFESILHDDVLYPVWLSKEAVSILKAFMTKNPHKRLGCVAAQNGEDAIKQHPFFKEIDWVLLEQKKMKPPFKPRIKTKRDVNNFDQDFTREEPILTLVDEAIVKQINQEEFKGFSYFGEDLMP

Chain of δPKC (Rattus norvegicus, UniProt P09215) (P09215 whole entry): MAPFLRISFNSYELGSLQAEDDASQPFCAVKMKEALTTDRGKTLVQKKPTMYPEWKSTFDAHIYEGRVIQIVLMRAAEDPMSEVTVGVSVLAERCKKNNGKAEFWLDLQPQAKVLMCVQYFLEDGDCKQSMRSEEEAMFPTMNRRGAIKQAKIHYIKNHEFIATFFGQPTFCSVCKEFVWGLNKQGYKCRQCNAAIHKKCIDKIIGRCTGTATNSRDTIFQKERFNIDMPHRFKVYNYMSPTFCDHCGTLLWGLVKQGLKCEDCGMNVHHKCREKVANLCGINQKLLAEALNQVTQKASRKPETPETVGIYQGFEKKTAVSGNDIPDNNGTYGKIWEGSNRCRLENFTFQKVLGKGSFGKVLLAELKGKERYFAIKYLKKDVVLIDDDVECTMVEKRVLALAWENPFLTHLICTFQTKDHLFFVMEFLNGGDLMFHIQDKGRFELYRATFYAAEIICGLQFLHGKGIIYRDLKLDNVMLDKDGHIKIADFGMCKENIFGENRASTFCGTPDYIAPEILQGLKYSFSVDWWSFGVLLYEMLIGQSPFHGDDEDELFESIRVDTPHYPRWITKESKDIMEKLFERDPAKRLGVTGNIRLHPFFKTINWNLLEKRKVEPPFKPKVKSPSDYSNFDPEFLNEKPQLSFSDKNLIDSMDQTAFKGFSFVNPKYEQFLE

| Sequence | δPKC activity in the brain [1] | change in cerebral blood flow from baseline [2] [%] | reduction of infarct size compared with Tat controls ([3]; 90 min MCA occlusion, 24 h reperfusion, chronic subcutaneous pump delivery, animals without hemorrhage) [%] | infarct size (relative stroke area) ([3]; 90 min MCA occlusion, 24 h reperfusion, chronic subcutaneous pump delivery, animals without hemorrhage, n=6-7 per group) [%] | δPKC activation, percent translocation [4] [% translocation] | εPKC activation, percent translocation [5] [% translocation] | infarct size (relative stroke area) ([3]; rat, in vivo, sc) [%] |
| --- | --- | --- | --- | --- | --- | --- | --- |
| SFNSYELGSL (listed as Rattus norvegicus) [δV1-1] | inhibits δPKC activity | 12 | 25 | 30±4 | – | – | – |
| YGRKKRRQRRR [Tat] | – | −5±9 | – | – | 49±1 | 46±5 | 39±3 |
